Where a name gives a salt, the structure may show the parent alone. Read-outs that look alike come from different tables or passages of the source.
How the values were obtained:
[1] = molecular target: His-GST-TVMV-hRIPK1(1-324) (Homo sapiens (Human), UniProt Q13546); experiment: RIPK1 HTRF Binding Assay; details: HTRF binding, 1 h at rt; read-out: RIPK1 (IC50)
Outline: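 HTRF probe-displacement binding: 1 nM His-GST-TVMV-hRIPK1(1-324) (baculovirus construct), 90.6 nM probe, 0.2 nM anti-GST-Tb in 20 mM HEPES, 10 mM MgCl2, 0.015% Brij-35, 4 mM DTT, 0.05 mg/mL BSA. Incubated 1 h at rt; FRET 520/495 nm ratio, inhibition relative to DMSO-only wells.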

[2] = system: MLKL phosphorylation in HT29-L23 human colorectal adenocarcinoma cells; experiment: MLKL Phosphorylation High-Content Assay; type: cell-based; details: 6 h, necroptosis induced with TNFα, SMAC mimetic and Z-VAD, read-out: pMLKL (IC50)
Outline: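 HT29-L23 cells pretreated 30 min at 37 °C with compound (6.25 to 0.106 μM final), then necroptosis induced with TNFα 35 ng/mL, SMAC mimetic 700 nM and Z-VAD 140 nM for 6 h. Fixed cells immunostained for MLKL pS358 and imaged; IC50 and Ymax from 4-parameter logistic fit.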

Sequence of His-GST-TVMV-hRIPK1(1-324) (Q13546 1-324): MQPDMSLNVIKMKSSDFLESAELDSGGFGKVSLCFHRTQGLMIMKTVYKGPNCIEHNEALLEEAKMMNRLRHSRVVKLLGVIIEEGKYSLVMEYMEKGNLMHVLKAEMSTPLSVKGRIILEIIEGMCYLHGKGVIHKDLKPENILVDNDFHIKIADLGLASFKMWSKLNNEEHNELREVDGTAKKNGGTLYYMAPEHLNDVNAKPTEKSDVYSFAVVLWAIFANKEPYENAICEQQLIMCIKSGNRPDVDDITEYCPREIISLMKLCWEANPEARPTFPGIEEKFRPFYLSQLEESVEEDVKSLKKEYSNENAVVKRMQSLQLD

Row | Compound | IC50 [1] | IC50 ([2]; Homo sapiens) | IC50 [2]
1 | COc1ncc(-c2ccc3nc(NC(C)=O)cn3n2)cc1C(=O)NCc1cc(F)cc(F)c1OCC(C)C [Example 116, N-{[3,5-difluoro-2-(2-methylpropoxy)phenyl]methyl}-5-{2-acetamidoimidazo[1,2-b]pyridazin-6-yl}-2-methoxypyridine-3-carboxamide] | 10 nM | 3 nM | –
2 | [2H]C([2H])(NC(=O)c1cc(-c2ccc3nc(NC(C)=O)cn3n2)c(C)nc1C)c1cccc(C(F)(F)F)c1 [Example 74, 5-{2-acetamidoimidazo[1,2-b]pyridazin-6-yl}-2,6-dimethyl-N-{[3-(trifluoro-methyl)phenyl](deutero)methyl}pyridine-3-carboxamide, TFA] | 63 nM | 353 nM | –
3 | O=C(CN1CCC(F)(F)CC1)Nc1cn2nc(-c3cccc(C(=O)NCc4cc(OC(F)(F)F)ccc4F)c3F)ccc2n1 [Example 427, 3-{2-[2-(4,4-difluoropiperidin-1-yl)acetamido]imidazo [1,2-b]pyridazin-6-yl}-2-fluoro-N-{[2-fluoro-5-(trifluoromethoxy)phenyl]methyl} benzamide] | 7 nM | 3 nM | –
4 | CC(=O)Nc1cn2nc(-c3cc(F)c(C)c(C(=O)NCc4cc(OC(F)(F)F)ccc4F)c3)ccc2n1 [Example 359, 5-{2-acetamidoimidazo [1,2-b]pyridazin-6-yl}-3-fluoro-N-{[2-fluoro-5-(trifluoromethoxy)phenyl]methyl}-2-methylbenzamide] | 78 nM | 5 nM | –
5 | CC(=O)Nc1cn2nc(-c3cc(C(=O)NCc4cc(F)cc(F)c4OC4COC4)c(C)nc3C)ccc2n1 [Example 77, N-{[3,5-difluoro-2-(oxetan-3-yloxy)phenyl]methyl}-5-{2-acetamidoimidazo[1,2-b]pyridazin-6-yl}-2,6-dimethylpyridine-3-carboxamide] | 17 nM | 265 nM | –
6 | CC(=O)Nc1cn2nc(-c3cnc(C)c(C(=O)N4CCCC(O)(Cc5ccc(F)cc5)C4)c3)ccc2n1 (stereo not shown) [Example 357, N-[6-(5-{3-[(4-fluorophenyl)methyl]-3-hydroxypiperidine-1-carbonyl}-6-methylpyridin-3-yl)imidazo[1,2-b]pyridazin-2-yl] acetamide] | 335 nM | 219 nM | –
7 | COc1nc(C)c(-c2ccc3nc(NC(C)=O)cn3n2)cc1C(=O)NCc1c(F)ccc(F)c1OC [Example 285, N-[(3,6-difluoro-2-methoxyphenyl)methyl]-5-{2-acetamidoimidazo[1,2-b]pyridazin-6-yl}-2-methoxy-6-methylpyridine-3-carboxamide] | 17 nM | 23 nM | –
8 | COc1ncc(-c2ccc3nc(NC(C)=O)cn3n2)cc1C(=O)NCc1ccccc1OC(F)(F)F [Example 157, 5-{2-acetamidoimidazo[1,2-b]pyridazin-6-yl}-2-methoxy-N-{[2-(trifluoro-methoxy)phenyl]methyl}pyridine-3-carboxamide] | 17 nM | 93 nM | –
9 | COc1ncc(-c2ccc3nc(NC(C)=O)cn3n2)cc1C(=O)NCc1cc(C(F)(F)F)ccc1F [Example 111, 5-{2-acetamidoimidazo[1,2-b]pyridazin-6-yl}-N-{[2-fluoro-5-(trifluoromethyl)phen-yl](deutero)methyl}-2-methoxypyridine-3-carboxamide] | 19 nM | – | 36 nM
10 | COc1ncc(-c2ccc3nc(NC(C)=O)cn3n2)cc1C(=O)NCc1cc(F)cc(F)c1OC1CC(C)OC(C)C1 (stereo not shown) [Example 103, N-({2-[(2,6-dimethyloxan-4-yl)oxy]-3,5-difluorophenyl}methyl)-5-{2-acetamidoimidazo[1,2-b]pyridazin-6-yl}-2-methoxypyridine-3-carboxamide] | 51 nM | 188 nM | –
11 | CC(=O)Nc1cn2nc(-c3cc(C(=O)NCc4ccccc4OCC(F)(F)F)c(C)nc3C)ccc2n1 [Example 68, 5-{2-acetamidoimidazo[1,2-b]pyridazin-6-yl}-2,6-dimethyl-N-{[2-(2,2,2-trifluoroethoxy)phenyl]methyl}pyridine-3-carboxamide] | 5 nM | 45 nM | –
12 | CC(=O)Nc1cn2nc(-c3cnc(C)c(C(=O)NCc4ccccc4OCC(F)(F)F)c3)ccc2n1 [Example 193, 5-{2-acetamidoimidazo[1,2-b]pyridazin-6-yl}-2-methyl-N-{[2-(2,2,2-trifluoroethoxy)phenyl]methyl}pyridine-3-carboxamide] | 56 nM | 61 nM | –
13 | COc1ncc(-c2ccc3nc(NC(C)=O)cn3n2)cc1C(=O)NCc1ccccc1OCC1CC1 [Example 22, N-{[2-(cyclopropylmethoxy)phenyl]methyl}-5-{2-acetamidoimidazo[1,2-b]pyridazin-6-yl}-2-methoxypyridine-3-carboxamide] | 4 nM | 26 nM | –
14 | COCC(=O)Nc1cn2nc(-c3cnc(OC)c(C(=O)NCc4cc(OCC5CC5)ccc4F)c3)ccc2n1 [Example 260, N-{[5-(cyclopropylmethoxy)-2-fluorophenyl]methyl}-2-methoxy-5-[2-(2-methoxyacetamido)imidazo[1,2-b]pyridazin-6-yl]pyridine-3-carboxamide] | 18 nM | 80 nM | –
15 | CC(=O)Nc1cn2nc(-c3cnc(C)c(C(=O)NCc4c(F)cccc4OC4CCCC4)c3)ccc2n1 [Example 223, N-{[2-(cyclopentyloxy)-6-fluorophenyl]methyl}-5-{2-acetamidoimidazo[1,2-b]pyridazin-6-yl}-2-methylpyridine-3-carboxamide] | 4 nM | 3 nM | –
16 | COc1nc(C)c(-c2ccc3nc(NC(C)=O)cn3n2)cc1C(=O)NCc1cccc(OC(F)(F)F)c1 [Example 319, 5-{2-acetamidoimidazo[1,2-b]pyridazin-6-yl}-2-methoxy-6-methyl-N-{[3-(trifluoromethoxy)phenyl]methyl}pyridine-3-carboxamide] | 15 nM | 29 nM | –
17 | [2H]C([2H])(Oc1c(F)cc(F)cc1CNC(=O)c1cc(-c2ccc3nc(NC(=O)CC)cn3n2)cnc1OC)C1CC1 [Example 243, N-({2-[cyclopropyl(deutero)methoxy]-3,5-difluorophenyl}methyl)-2-methoxy-5-{2-propanamidoimidazo[1,2-b]pyridazin-6-yl}pyridine-3-carboxamide] | 2 nM | 3 nM | –
18 | CC(=O)Nc1cn2nc(-c3cc(C(=O)NCc4c(F)cccc4OCC(F)(F)F)c(C)nc3C)ccc2n1 [Example 325, 5-{2-acetamidoimidazo[1,2-b]pyridazin-6-yl}-N-{[2-fluoro-6-(2,2,2-trifluoroethoxy)phenyl]methyl}-2,6-dimethylpyridine-3-carboxamide] | 9 nM | 17 nM | –
19 | CC(=O)Nc1cn2nc(-c3cnc(C)c(C(=O)NCc4cc(F)ccc4OCC(F)(F)F)c3)ccc2n1 [Example 195, 5-{2-acetamidoimidazo[1,2-b]pyridazin-6-yl}-N-{[5-fluoro-2-(2,2,2-trifluoroethoxy)phenyl]methyl}-2-methylpyridine-3-carboxamide] | 43 nM | 188 nM | –
20 | CC(=O)Nc1cn2nc(-c3cnc(C)c(C(=O)NCc4cccc(OC(F)(F)F)c4)c3)ccc2n1 [Example 221, 5-{2-acetamidoimidazo[1,2-b]pyridazin-6-yl}-2-methyl-N-{[3-(trifluoromethoxy)phenyl]methyl}pyridine-3-carboxamide, TFA] | 49 nM | 52 nM | –
21 | COc1ncc(-c2ccc3nc(NC(C)=O)cn3n2)cc1C(=O)NCc1cc(F)cc(OCC2CC2)c1 [Example 140, N-{[3-(cyclopropylmethoxy)-5-fluorophenyl]methyl}-5-{2-acetamidoimidazo[1,2-b]pyridazin-6-yl}-2-methoxypyridine-3-carboxamide] | 17 nM | 77 nM | –
22 | Cc1c(F)cc(-c2ccc3nc(NC(=O)CN(C)C)cn3n2)cc1C(=O)NCC[C@H](O)c1ccc(Cl)cc1 [Example 362, N-[(3S)-3-(4-chlorophenyl)-3-hydroxypropyl]-5-{2-[2-(dimethylamino)acetamido]imidazo[1,2-b]pyridazin-6-yl}-3-fluoro-2-methylbenzamide] | 6 nM | 5 nM | –
23 | [2H]C([2H])([2H])[C@@H](NC(=O)c1c(OC)ccc(-c2ccc3nc(NC(C)=O)cn3n2)c1F)c1cc(OC(F)(F)F)ccc1F [Example 378, 3-{2-acetamidoimidazo [1,2-b]pyridazin-6-yl}-2-fluoro-N-[(1R)-1-[2-fluoro-5-(trifluoromethoxy)phenyl](2,2,2-Â^2Hâ,f)ethyl]-6-methoxybenzamide] | 6 nM | 1 nM | –
24 | CC(CCNC(=O)c1cccc(-c2ccc3nc(NC(=O)c4ccnc(F)c4)cn3n2)c1)c1ccccc1 (stereo not shown) [Example 24, 2-fluoro-N-(6-{3-[(3-phenylbutyl)carbamoyl]phenyl}imidazo[1,2-b]pyridazin-2-yl)pyridine-4-carboxamide] | 5 nM | 10 nM | –
25 | COc1ncc(-c2ccc3nc(NC(C)=O)cn3n2)cc1C(=O)NCc1ccccc1COC(C)C [Example 114, 5-{2-acetamidoimidazo[1,2-b]pyridazin-6-yl}-2-methoxy-N-({2-[(propan-2-yloxy)methyl]phenyl}meth-yl)pyridine-3-carboxamide, TFA] | 8 nM | – | 33 nM
26 | CC(=O)Nc1cn2nc(-c3cc(C(=O)NCc4cc(C(F)(F)F)ccc4F)c(C)nc3C)ccc2n1 [Example 80, 5-{2-acetamidoimidazo[1,2-b]pyridazin-6-yl}-N-{[2-fluoro-5-(trifluoromethyl)phenyl]methyl}-2,6-dimethylpyridine-3-carboxamide] | 14 nM | 15 nM | –
